Results taken from the METLIN SMRT retention time set (Domingo-Almenara et al. 2019).

Experiment: gradient 5% acetonitrile 3 min, to 50% in 2 min, to 85% in 15 min, held 3 min, 100 µL/min
Conditions: column: Zorbax Extend-C18 2.1 x 50 mm; eluents: water / acetonitrile, 0.1% formic acid
How it was run: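 Over 3 months, pure standards in mixtures of ~100 molecules were run by HPLC coupled to a quadrupole time-of-flight mass spectrometer in positive and negative ionization mode. The column was a Zorbax Extend-C18 (2.1 × 50 mm, 1.8 μm) at 100 μL/min, eluted with water and acetonitrile each holding 0.1% formic acid, with 40 μL dead and 900 μL dwell volumes. Retention time was determined from adduct peaks chosen by software and checked manually.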

Row | Compound | RP-LC retention time [s]
1 | COc1ccc2c(c1)C1(CCN(C(=O)c3ccc(C)cc3)C1)C(=O)N2 (stereo not given) | 727
2 | Cn1nccc1C(=O)Nc1ccsc1-c1nc(-c2ccc(F)cc2)no1 | 1260
3 | FC1(c2nc(Cc3ccccc3)no2)CCN(Cc2ccoc2)CC1 | 693
4 | Cc1ccccc1Nc1c(-c2ccc(N(C)C)cc2)nc2c(C)cccn12 | 798
5 | COc1cc(-c2noc(CCn3nc(-c4ccc(F)cc4)ccc3=O)n2)cc(OC)c1OC | 887
6 | O=S(=O)(c1ccccc1Cl)N1CC(F)(F)C[C@H]1CN1CCc2ccccc2C1 | 760
7 | COc1ccccc1CNS(=O)(=O)c1ccccc1-c1nc(-c2ccc(F)cc2)no1 | 1210
8 | CC(C)NCc1ccc(-c2ccccc2Cl)o1 | 673
9 | CCc1ccc(OCC(=O)Nc2nnc(C3CC(=O)N(c4ccc(Cl)cc4)C3)o2)cc1 (stereo not given) | 888
10 | CCCN(C(C)=O)c1nc(-c2cccc(Br)c2)cs1 | 1260
11 | Cc1cc(N2CCCC2)n2nc(CN3CCN(c4ccc(Cl)cc4)CC3)nc2n1 | 654
12 | Cc1noc([C@@H]2CN(Cc3ccc(Cl)cc3F)C[C@H]2CO)n1 | 600
13 | Cc1noc(C)c1C1CCCN1C(=O)c1cc(-c2ccccc2F)no1 (stereo not given) | 859
14 | CCOC(=O)c1cnc2nc(-c3ccccc3)nn2c1C | 917
15 | Cc1ccc2c(C(=O)NCc3ccc(C)o3)cc(NC(=O)C3CCC3)cc2n1 | 618
16 | CCc1ccc(NS(=O)(=O)c2cc3[nH]c(=O)[nH]c3cc2C)cc1 | 719
17 | C=CCn1c(C(=O)NCCc2c[nH]c3ccccc23)cc2cc(S(=O)(=O)N(C)C)ccc21 | 981
18 | CCN(CC)CCNC(=O)c1c(C)oc2c1C(=O)c1ccccc1C2=O | 635
19 | CCn1c(C)nc2c1CN(CC(=O)NCCCN1CCCc3ccccc31)CC2 | 594
20 | CCOC(=O)C1CCN(C(=O)C2CCN(c3nccc(C)n3)CC2)CC1 | 662
21 | CC1=C(C#N)C(C)(C)C(C#N)=C(C)N1 | 804
22 | Cc1ccc(F)c(NS(=O)(=O)c2cc(-c3[nH]ncc3C(=O)N3CCOCC3)oc2C)c1 | 678
23 | COC1CCOC2(CCN(C(=O)c3cccs3)CC2)C1 (stereo not given) | 703

Row | Compound | RP-LC retention time [s]
24 | O=C1N(c2cccc(F)c2)c2ncccc2S(=O)(=O)N1Cc1ccccc1 | 1020
25 | CC(C)c1cc(C(=O)Nc2cccc(C#N)c2)nc2ccnn12 | 1030
26 | CCOC(=O)c1c(S(=O)(=O)N2CCC(C(=O)NCC3CCCO3)CC2)c(C)n(C)c1C (stereo not given) | 674
27 | CCN1CCCC1CN(CC(=O)N1CCNCC1)S(=O)(=O)c1cc(C)c(C)cc1C (stereo not given) | 588
28 | CC1=C(c2ccc(C)cc2)S(=O)(=O)N=C1N1CCCN(C(=O)c2ccoc2)CC1 | 786
29 | O=C(O)c1ccc(NC(=O)N2C[C@@H]3C[C@@H](C2)c2cccc(=O)n2C3)cc1 | 592
30 | CC(=O)Nc1cccc2c(C(=O)N3CCN(c4cccc(Cl)c4)CC3)ccnc12 | 920
31 | CCCNC(=O)c1cn2ccnc(-c3ccc(C)cc3)c2n1 | 878
32 | Cc1cc2nc(C)c(=O)n(CC(=O)NCCc3c[nH]c4ccccc34)c2cc1C | 814
33 | CN(CCc1noc(-c2ccc(F)cc2)n1)C(=O)Nc1ccc(F)cc1 | 864
34 | Cc1ccc(CNC(=O)c2ccc3ncnc(N4CCCCC4)c3c2)o1 | 637
35 | COc1ccc(CCNC(=O)c2nc(CCS(=O)(=O)c3ccccc3)no2)cc1OC | 754
36 | Cc1cc(=O)n(CC(=O)Nc2ccccc2C#N)cn1 | 571
37 | CCNc1cc(N2CCCC(CCC(=O)NCCc3cccs3)C2)ncn1 (stereo not given) | 639
38 | CCc1nc(-c2cccc(-c3noc(COc4ccccc4)n3)c2)cs1 | 1300
39 | CCc1noc(NC(C)=O)c1-c1ccc(C)c(S(=O)(=O)Nc2cc(OC)ccc2OC)c1 | 819
40 | O=C(NCC1CCCO1)c1nnc(-c2ccc(S(=O)(=O)N3CCCCC3)cc2)o1 (stereo not given) | 797
41 | CCN1C(=O)COc2ccc(-c3csc(NC(=O)CCc4ccccc4)n3)cc21 | 664
42 | O=C(Nc1ccc2c(c1)OCCO2)c1nn(CC2CC2)c2c1CNCC2 | 568
43 | CCc1noc(-c2cccnc2N2CCCN(Cc3cc(F)cc(F)c3)CC2)n1 | 673
44 | COc1cccc(C2(C(N)=O)CC2)c1 | 688
45 | Cc1ccc(S(=O)(=O)N2CCC(CCC(=O)NCc3ccccc3)CC2)cc1 | 873
46 | O=C(CCCn1c(=O)c2cccn2c2ccc(F)cc21)NCCCN1CCCCCC1 | 645

Row | Compound | RP-LC retention time [s]
47 | O=C(CN1C[C@H]2C[C@H](C1)[C@H]1CCCC(=O)N1C2)NCCC1=CCCCC1 | 627
48 | COc1ccc(-c2cc3c(=O)n(Cc4noc(CN5CCCC5)n4)ccn3n2)cc1 | 646
49 | CCc1nnc([C@@H]2CC(F)(F)CN2C(=O)Cn2ccc(C)n2)o1 | 646
50 | Cc1ccccc1-c1nc(CN2CCN(C(=O)NC3CCCC3)CC2)c(C)o1 | 672
51 | Cc1ccc(NC(=O)N2CCC(C(C)C(=O)Nc3ccc(Cl)cc3)CC2)cc1 (stereo not given) | 951
52 | Cc1ccc2[nH]cc(CCNC(=O)CCc3nnc(C(=O)Nc4ccccc4)s3)c2c1 | 875
53 | CCOC(=O)c1nc(Nc2cc(OC)ccc2OC)c2ccccc2n1 | 911
54 | O=C(Cn1nc2c(SC3CCCCC3)nccn2c1=O)Nc1ccc(Br)cc1 | 1120
55 | O=C(c1ccc2c(c1)OCO2)N1CC(c2noc(C3CCCN3CC3CC3)n2)C1 (stereo not given) | 610
56 | O=C(Cc1ccccc1)NCc1nc(-c2cccc(-c3ccn[nH]3)c2)no1 | 898
57 | Cn1c(=O)c2c(ncn2CC(=O)Nc2nccs2)n(C)c1=O | 576
58 | O=C(Cn1nc2c(N3CCN(c4ccccc4)CC3)nccn2c1=O)Nc1ccccc1Cl | 928
59 | O=C(NCC1(CO)CC1)NC1CCCCC1 | 621
60 | O=C(C1CCN(c2cncnc2N2CCCC2)CC1)N1CCCCC1 | 613
61 | O=C(c1ccccn1)N1CCc2cc(-c3csc(C4CC4)n3)ccc21 | 975
62 | COc1ccc(C(=O)N2CC(n3cc(COCC4CC4)nn3)C2)cc1F | 620
63 | Cc1cc(=O)n(CC(=O)NCc2ccc3c(c2)OCO3)c(N2CCCCC2)n1 | 945
64 | CCOC(=O)C1CCN(c2cc3c(cc2NC(=O)NCC(C)C)n(C)c(=O)n3C)CC1 | 685
65 | CC(CCc1ccccc1)NC(=O)Cc1csc2nc(-c3ccccc3)cn12 (stereo not given) | 850
66 | CC(C)n1cnc2ccc(-c3noc(-c4cccc(F)c4)n3)cc21 | 810
67 | NC(=O)C1CCN(C(=O)Cn2c(=O)n(C3CCCCC3)c(=O)c3cc(Br)ccc32)CC1 | 771
68 | CC(=O)N1CCc2ccccc2C1C(=O)N1CCN(c2ccc(F)cc2)CC1 (stereo not given) | 576
69 | Cc1cccc(N2CCN(S(=O)(=O)c3ccc(-c4c(C)noc4C)cc3)CC2)c1C | 1230

Row | Compound | RP-LC retention time [s]
70 | CCOC(=O)c1c(C)[nH]c(C(=O)N2CCCC(C(=O)NCCc3ccc(OCC)cc3)C2)c1C (stereo not given) | 866
71 | COc1cccc(NC(=O)NC2CCN(c3cc(C)cc(C)c3)C2=O)c1 (stereo not given) | 870
72 | Cc1nc(OCC(=O)Nc2ccc(Br)cc2)c2ccccc2n1 | 794
73 | O=C(c1ccc(-c2noc(C3CCC3)n2)cc1)N1CCCC1 | 879
74 | O=C(NC1CC1)[C@@H]1C[C@H](Oc2cccnc2)CN1C(=O)c1cccs1 | 574
75 | CCOc1c(C)cc(S(=O)(=O)NCC(C)(O)COC)cc1C (stereo not given) | 752
76 | Cn1c(=O)n([C@H]2CCN(C(=O)c3ccco3)C2)c2ncccc21 | 656
77 | Cc1sc(-c2nc(C(C)C)cs2)cc1S(=O)(=O)Nc1ccccc1F | 1170
78 | Cc1nn(-c2ccccc2)c(C)c1S(=O)(=O)N1CCC(C(=O)Nc2ccc(Cl)cc2F)CC1 | 1070
79 | C[C@@]1(c2cc(-c3cncnc3)c(F)cc2F)CCSC(N)=N1 | 654
80 | Cc1ccc(Nc2nc(N)nc(CN3CCN(c4ccccn4)CC3)n2)cc1 | 590
81 | CCN(CC)S(=O)(=O)c1cc(-c2nnc(-c3ccc(OC)cc3)o2)ccc1Cl | 1140
82 | CC(C)(C)OC(=O)COC(=O)c1cn(-c2cccc(F)c2)c(=O)c2ccccc12 | 1160
83 | Nc1nc(N2CCCC2)ncc1C(=O)NCc1ccccc1F | 643
84 | O=C(NCCCn1ncccc1=O)c1cccc(-n2ccc3ccccc32)c1 | 770
85 | COc1ccc(-c2noc(Cc3nnc(-c4cc(F)cc(F)c4)o3)n2)cc1 | 1040
86 | COc1ccc(OC)c(NS(=O)(=O)c2cc3n(c2)CCCNC3=O)c1 | 639
87 | CN(CCc1noc(COc2ccc(F)cc2)n1)C(=O)Nc1ccccc1Cl | 962
88 | O=C(c1ccccc1)c1ccc(-c2ccc(O)cc2)cc1 | 1000
89 | Cc1cc(-c2nnc(-c3ccc(F)cc3)o2)c(C)n1CC(=O)N(C)Cc1ccccc1 | 1000
90 | Cc1cnc(C(=O)N[C@@H]2CCC[C@@H]2C(=O)NC2CCCCCC2)cn1 | 735
